Literature values as cited in the PKSmart pharmacokinetics tables (Seal et al. 2025).

Test: Lombardo, Berellini, Obach 2018, Drug Metab Dispos 46:1466, doi 10.1124/dmd.118.082966
Settings: human; for MRT / Vd / clearance / half-life: in vivo, iv; for fraction unbound: plasma

In the case of CCCCC[C@@H](O)CC[C@H]1[C@@H]2Cc3cccc(OCC(=O)O)c3C[C@@H]2C[C@@H]1O, the MRT is given as 0.36 h, the Vd is given as 0.23 L/kg and the clearance is given as 10.7 mL/min/kg. For the same molecule, the half-life was 0.82 h and the fraction unbound was 0.09.
For CCN1CCC[C@@H]1CNC(=O)c1cc(S(N)(=O)=O)ccc1OC, the MRT is listed as 8.01 h, the Vd is listed as 0.94 L/kg and the clearance is listed as 1.9 mL/min/kg. The half-life was 6.5 h.
In the case of COC1C(=O)C(C)C[C@H](C)C=CC=CC=C(C)[C@@H](OC)C[C@@H]2CC[C@@H](C)[C@@](O)(O2)C(=O)C(=O)N2CCCCC2C(=O)O[C@H]([C@H](C)C[C@@H]2CC[C@@H](OP(C)(C)=O)[C@H](OC)C2)CC(=O)C(C)=CC(C)[C@H]1O (some centres undefined), the MRT is given as 48.5 h, the Vd is given as 3.2 L/kg and the clearance is given as 1.1 mL/min/kg. For the same molecule, the half-life was 46.3 h.
In the case of CCC1=C[C@@H]2CN(C1)Cc1c([nH]c3ccccc13)[C@@](C(=O)OC)(c1cc3c(cc1OC)N(C)[C@H]1[C@@](O)(C(=O)OC)[C@H](OC(C)=O)[C@]4(CC)C=CCN5CC[C@]31[C@@H]54)C2, the MRT is given as 18 h, the Vd is given as 23 L/kg and the clearance is given as 20 mL/min/kg. The half-life was 26 h and the fraction unbound was 0.87.
For COc1cc([C@@H]2c3cc4c(cc3[C@@H](O[C@@H]3O[C@@H]5CO[C@@H](c6cccs6)O[C@H]5[C@H](O)[C@H]3O)[C@H]3COC(=O)C23)OCO4)cc(OC)c1O (some centres undefined), the MRT is listed as 37 h, the Vd is listed as 0.41 L/kg and the clearance is listed as 0.19 mL/min/kg. The half-life was 16 h and the fraction unbound was 0.0044.
For COc1ccccc1OC[C@H](O)CN1CCN(CC(=O)Nc2c(C)cccc2C)CC1, the MRT is listed as 2.1 h, the Vd is listed as 1.2 L/kg and the clearance is listed as 9.5 mL/min/kg. The half-life was 1.8 h and the fraction unbound was 0.38.
In the case of O=C(O)C1=C(CSc2nnnn2CS(=O)(=O)O)CS[C@@H]2C(NC(=O)C(O)c3ccccc3)C(=O)N12 (some centres undefined), the MRT is given as 5.8 h, the Vd is given as 0.14 L/kg and the clearance is given as 0.38 mL/min/kg. For the same molecule, the half-life was 5.1 h and the fraction unbound was 0.02.
In the case of C[C@@H]([C@@](O)(Cn1cncn1)c1ccc(F)cc1F)S(C)(=O)=O, the MRT is given as 54 h, the Vd is given as 0.62 L/kg and the clearance is given as 0.19 mL/min/kg. For the same molecule, the half-life was 49 h.
For O=c1[nH]c(O)cn1/N=C/c1ccc(-c2ccc([N+](=O)[O-])cc2)o1, the MRT is given as 14 h, the Vd is given as 0.37 L/kg and the clearance is given as 0.43 mL/min/kg. For the same molecule, the half-life was 10 h.
For O=C(NC[C@H](O)CO)c1ccncc1Nc1ccc(I)cc1F, the MRT is given as 3.55 h, the Vd is given as 1.8 L/kg and the clearance is given as 8.71 mL/min/kg. The half-life was 4.59 h.
For O=C1N=C(c2ccccc2Cl)c2cc(Cl)ccc2NC1O (centres undefined), the MRT is given as 22 h, the Vd is given as 1.3 L/kg and the clearance is given as 1 mL/min/kg. For the same molecule, the half-life was 17 h.
In the case of C#C[C@@]1(O)[C@@H](CO)O[C@H](n2ccc(N)nc2=O)[C@@H]1O, the MRT is given as 11.7 h, the Vd is given as 1.1 L/kg and the clearance is given as 1.6 mL/min/kg. The half-life was 10.9 h.
For CN1CCN(C(=O)OC2c3nccnc3C(=O)N2c2ccc(Cl)cn2)CC1 (centres undefined), the MRT is listed as 6.6 h, the Vd is listed as 1.3 L/kg and the clearance is listed as 3.3 mL/min/kg. The half-life was 5.2 h.
For COc1cc2c(cc1OC)CN(c1cc(N)c3cc(OC)c(OC)cc3n1)CC2, the MRT is listed as 7.6 h, the Vd is listed as 6.3 L/kg and the clearance is listed as 14 mL/min/kg. The half-life was 5.9 h.
In the case of CC[C@H](O)[C@@H](C)[C@H]1O[C@@H]1C[C@@](C)(O)/C=C/C=C(\C)[C@H]1OC(=O)C[C@H](O)CC[C@@](C)(O)[C@@H](OC(=O)N2CCN(C3CCCCCC3)CC2)C=C[C@@H]1C, the MRT is given as 3.5 h, the Vd is given as 10.1 L/kg and the clearance is given as 47.9 mL/min/kg. The half-life was 9.2 h.
In the case of O=C(O)c1ccc(-n2nc(-c3ccccc3O)nc2-c2ccccc2O)cc1, the MRT is listed as 4.07 h, the Vd is listed as 0.2 L/kg and the clearance is listed as 0.84 mL/min/kg. The half-life was 4.05 h and the fraction unbound was 0.004.
In the case of N#C[C@H]1CC2C[C@H]2N1C(=O)C(N)C12CC3CC(CC(O)(C3)C1)C2 (some centres undefined), the MRT is listed as 4.1 h, the Vd is listed as 1.8 L/kg and the clearance is listed as 7.1 mL/min/kg. For the same molecule, the half-life was 7.5 h and the fraction unbound was 1.
For Nc1ccn([C@H]2CO[C@@H](CO)S2)c(=O)n1, the MRT is given as 6.5 h, the Vd is given as 1.18 L/kg and the clearance is given as 3 mL/min/kg. For the same molecule, the half-life was 19.2 h.
In the case of CN1CCN(CC(=O)N2c3ccccc3C(=O)Nc3cccnc32)CC1, the MRT is listed as 10.3 h, the Vd is listed as 1.71 L/kg and the clearance is listed as 2.77 mL/min/kg. The half-life was 11.1 h.
In the case of Nc1nc2[nH]cc(CCc3ccc(C(=O)NC(CCC(=O)O)C(=O)O)cc3)c2c(=O)[nH]1 (centres undefined), the MRT is given as 1.92 h, the Vd is given as 0.15 L/kg and the clearance is given as 1.3 mL/min/kg. For the same molecule, the half-life was 1.85 h.
In the case of Cc1ccc(Sc2ccccc2N2CCNCC2)c(C)c1, the MRT is listed as 101 h, the Vd is listed as 35.3 L/kg and the clearance is listed as 5.8 mL/min/kg. For the same molecule, the half-life was 72 h and the fraction unbound was 0.02.
In the case of CCc1cc2c(cc1CC)CC(NC[C@H](O)c1ccc(O)c3[nH]c(=O)ccc13)C2, the MRT is given as 72.4 h, the Vd is given as 19.4 L/kg and the clearance is given as 4.48 mL/min/kg. The half-life was 92.5 h.
For CN(C)CC/C=C1/c2ccccc2Sc2ccc(Cl)cc21, the MRT is listed as 20.7 h, the Vd is listed as 13.7 L/kg and the clearance is listed as 11.5 mL/min/kg. For the same molecule, the half-life was 25.8 h.
In the case of O=C(O)C1=C(C[n+]2ccc(CCS(=O)(=O)[O-])cc2)CSC2C(NC(=O)C(NC(=O)c3[nH]cnc3C(=O)O)c3ccccc3)C(=O)N12 (centres undefined), the MRT is given as 2.1 h, the Vd is given as 0.21 L/kg and the clearance is given as 1.7 mL/min/kg. For the same molecule, the half-life was 1.8 h.
For CC(C)(C)NC(=O)C1CC[C@H]2[C@@H]3C=CC4=CC(C(=O)O)CC[C@]4(C)[C@H]3CC[C@]12C (some centres undefined), the MRT is given as 27 h, the Vd is given as 0.54 L/kg and the clearance is given as 0.33 mL/min/kg. For the same molecule, the half-life was 27 h.
For Cc1nc2c([nH]1)-c1ccccc1N(C(=O)c1ccc(NC(=O)c3ccccc3-c3ccccc3)cc1)CC2, the MRT is listed as 4.2 h, the Vd is listed as 0.76 L/kg and the half-life is listed as 6.7 h.
In the case of CCCCCCN1CCC(C(=O)N(C)CC)(c2ccccc2)CC1, the clearance is given as 24 mL/min/kg and the half-life is given as 3.6 h.
For O=P(NCCCl)(NCCCl)O[C@@H]1O[C@H](CO)[C@@H](O)[C@H](O)[C@H]1O, the MRT is given as 2.49 h, the Vd is given as 0.24 L/kg and the clearance is given as 1.6 mL/min/kg. The half-life was 2.37 h and the fraction unbound was 0.71.
In the case of CCCCCCCC(=O)N[C@H](CN1CCCC1)[C@H](O)c1ccc2c(c1)OCCO2, the clearance is given as 20.9 mL/min/kg, the half-life is given as 7.7 h and the fraction unbound is given as 0.21.
For CC[C@@H](c1cccc(O)c1)[C@@H](C)CN(C)C, the MRT is listed as 3.62 h, the Vd is listed as 4.64 L/kg and the clearance is listed as 21.3 mL/min/kg. For the same molecule, the half-life was 2.39 h.
For CC(C)CC1C(=O)N2CCC[C@H]2[C@]2(O)O[C@@](C)(NC(=O)C3C[C@@H]4c5cccc6[nH]cc(c56)C[C@H]4N(C)C3)C(=O)N12 (some centres undefined), the MRT is given as 5.01 h, the Vd is given as 4.02 L/kg and the clearance is given as 12.8 mL/min/kg. For the same molecule, the half-life was 8.84 h.
For CC(C(=O)O)c1ccc(C(=O)c2ccccc2)s1 (centres undefined), the MRT is given as 2.3 h, the Vd is given as 0.08 L/kg and the clearance is given as 0.62 mL/min/kg. The half-life was 2.1 h and the fraction unbound was 0.015.
In the case of CCCCCN(C)CCC(O)(P(=O)(O)O)P(=O)(O)O, the MRT is listed as 5.1 h, the Vd is listed as 0.55 L/kg and the clearance is listed as 1.8 mL/min/kg. The half-life was 14 h and the fraction unbound was 0.15.
